Legend:
souris = experiment: Potentiation of an infra-hypnotic dose of sodium pentobarbital; assay type: in vivo; details: mouse, 100 mg/kg oral, 30 min before i.p. infra-hypnotic dose of sodium pentobarbital; control 0
Procedure: Les composés de l'invention potentialisent de façon très nette l'action des hypnotiques. En effet, administrés à différents lots de souris par la voie orale, à la dose de 100 mg/ kg, trente minutes avant l'injection intrapéritonéale d'une dose infra-hypnotique de pentobarbital sodique, ils produisent par rapport aux animaux témoins non traités, une nette poten- tialisation de l'action du barbiturique.
En effet, le nombre de souris endormies, le temps moyen d'endormissement et la durée du sommeil sont nettement accrus dans les lots traités. Les résultats des composés les plus actifs sont rassemblés dans le Tableau I suivant.

[1] = Acute toxicity, intravenous LD50 (method of Miller and Tainter); design: species or system souris; details: mouse, in vivo, read-out: DL50/24 H/kg de poids corporel
Procedure: En ce qui concerne la toxicité aigüe, la DL50/24 H/kg de poids corporel, déterminée chez la souris selon la méthode de Miller et Tainter pour la voie orale est supérieure à 400 mg pour tous les dérivés.
Selon la même méthode, la DL50/24 H/kg de poids corporel déterminée par la vole intraveineuse est, par exemple, de 154 mg pour le dérivé N° 1, de 89 mg pour le dérivé N° 2, de 184mg pour le dérivé N° 10, de 130 mg pour le dérivé N° 11, de 350mg pour le dérivé N° 12, de 65 mg pour le dérivé N° 18, de 90 mg pour le dérivé N° 22, de 96 mg pour le dérivé N° 24 et de 105 mg pour le dérivé N° 31.

rat [2] = experiment: Anticonvulsant action against electroshock; assay type: in vivo; details: 100 mg/kg oral, electroshock 30 min after treatment, score 0 to 4, untreated controls 4
Procedure: Cette action a été étudiée vis-à-vis des électrochocs. L'application chez le rat d'une stimulation électrique supérieure au seuil électro-convulsivant provoque des convulsions expérimentales. On compare alors chez les animaux témoins et chez les animaux traités, à la fois la présence et la durée de chacune des phases convulsives et l'intensité de la crise dans son ensemble.
On établit des séries de 10 rats par produit à tester et on administre par la voie orale, à chaque animal, 100 mg/kg de ce produit.
De chaque côté de la base de la queue de chaque […], une électrode Cat mise en place et 30 minutes après le traitement, l'animal placé dans une enceinte de verre reçoit pendant 50 millisecondes un courant sinusoïdal de 50 périodes/secondes de 120 volts.
Le passage du courant déclenche une crise convulsive dont chacune des phases (tonique, clonique, relachement musculaire) est chronométrée. L'intensité de la crise est alors notée de 0 à 4 selon la présence de chacune des phases et leur durée. Les produits de l'invention sont testés comparativement au phénobarbital qui possède une action anti-convulsivante marquée (intensité de la crise = 2), alors que chez les animaux témoins non traités c'est l'intensité maxima de 4 qui est obtenue.

rat [3] = experiment: Localised carrageenan-induced oedema; assay type: in vivo; details: 100 mg/kg oral at -1 h, 0 h, +2.5 h
Procedure: Une solution de carragénine (0,1 ml), à 1 %, est injectée dans les fléchisseurs métatarsiens de la patte postérieure droite du rat au temps 0. Les animaux du lot traité reçoivent en outre, par la voie orale, 100 mg par kg du dérivé à tester respectivement 1 heure avant, en même temps que l'injection de l'agent phlogogène, puis 1 heure et 2 heures et demi après. Les mesures qui sont effectuées à l'aide du micromètre de ROGH au temps 0, 1 heure, 2 heures, 3 heures et 5 heures après l'administration de la carragénine permettent de déterminer, en fonction du temps, le pourcentage d'activité anti-inflammatoire, par comparaison avec le lot témoin.

rat [4] = experiment: Generalised ovalbumin oedema; assay type: in vivo; details: po, 100 mg/kg per os 1 h before and together with ovalbumin
Procedure: Une injection intrapéritonéale simultanée de 1 ml d'ovalbumine et de 0,5 ml d'une solution aqueuse de bleu Evans à 1% est effectuée sur le rat. D'autre part, on administre per os aux animaux du lot traité 100 mg/kg du dérivé à tester une heure avant et en même temps que l'ovalbumine. L'intensité du phénomène ainsi provoqué est notée par un chiffre allant de 1 à 5 suivant la progression du syndrome inflammatoire. On détermine ainsi la moyenne de l'intensité oedémateuse et le pourcentage de diminution de la réaction oedémateuse par rapport au témoin, en fonction du temps.

[5] = 1 h after carrageenan, read-out: Pourcentage d'activité anti-inflammatoire 1ère heure
[6] = 2 h after carrageenan, read-out: Pourcentage d'activité anti-inflammatoire 2ème heure
[7] = 3 h after carrageenan, read-out: Pourcentage d'activité anti-inflammatoire 3ème heure
[8] = 5 h after carrageenan, read-out: Pourcentage d'activité anti-inflammatoire 5ème heure
[9] = 2 h after ovalbumin injection, read-out: Pourcentage d'activité anti-inflammatoire 2ème heure
[10] = 3 h after ovalbumin injection, read-out: Pourcentage d'activité anti-inflammatoire 3ème heure

SMILES: O=C(NCc1cccnc1)c1cc2ccsc2cn1 [Dérivé 23, (pyridyl-3 méthyl)aminocarbonyl-5 thiéno [2,3-c]pyridine]
- Pourcentage d'animaux endormis (souris): 80%

SMILES: O=C(c1cc2sccc2cn1)N1CCCCC1 [Dérivé 11, Pipéridinocaxbonyl-6 thiéno [3,2-c] pyridine]
- LD50 at 24 h [1]: 130 mg/kg

SMILES: CCNC(=O)c1cc2sccc2cn1 [Dérivé 4, Ethylaminocarbonyl-6 thiéno [3,2-c] pyridine]
- valeurs moyennes de l'intensité des crises (rat [2]): 3
- inhibition in vivo at 100 mg/kg (rat [3]; [5]): 41%
- inhibition in vivo at 100 mg/kg (rat [3]; [6]): 46%
- inhibition in vivo at 100 mg/kg (rat [3]; [7]): 50%
- inhibition in vivo at 100 mg/kg (rat [3]; [8]): 58%
- inhibition in vivo at 100 mg/kg (rat [4]; [9]): 47%
- inhibition in vivo at 100 mg/kg (rat [4]; [10]): 56%

SMILES: C=CCNC(=O)c1cc2sccc2cn1 [Dérivé 16, Allylaminocarbonyl-6 thiéno [3,2-c] pyridine]
- Pourcentage d'animaux endormis (souris): 70%

SMILES: CCCCNC(=O)c1cc2sccc2cn1 [Dérivé 6, n-butylaminocarbonyl-6 thiéno [3,2-c] pyridine]
- Pourcentage d'animaux endormis (souris): 80%

SMILES: O=C(c1cc2sccc2cn1)N1CCCC1 [Dérivé 10, (pyrrolidinyl-1)carbonyl-6 thiéno[3,2-c] pyridine]
- LD50 at 24 h [1]: 184 mg/kg
- Pourcentage d'animaux endormis (souris): 90%
- inhibition in vivo at 100 mg/kg (rat [3]; [5]): 37%
- inhibition in vivo at 100 mg/kg (rat [3]; [6]): 42%
- inhibition in vivo at 100 mg/kg (rat [3]; [7]): 46%
- inhibition in vivo at 100 mg/kg (rat [3]; [8]): 51%
- inhibition in vivo at 100 mg/kg (rat [4]; [9]): 47%
- inhibition in vivo at 100 mg/kg (rat [4]; [10]): 55%

SMILES: CCN(CC)C(=O)c1cc2sccc2cn1 [Dérivé 9, Diéthylaminocarbonyl-6 thiéno[3,2-c] pyridine]
- valeurs moyennes de l'intensité des crises (rat [2]): 2,5

SMILES: O=C(c1cc2sccc2cn1)N1CCOCC1 [Dérivé 12, Morpholinocarbonyl-6 thiéno [3,2-c] pyridine]
- LD50 at 24 h [1]: 350 mg/kg

SMILES: COc1ccccc1N1CCN(C(=O)c2cc3ccsc3cn2)CC1 [Dérivé 30, (o-méthoxyphényl-4 pipérazinyl-1) carbonyl-5 thiéno[2,3-c] pyridine]
- valeurs moyennes de l'intensité des crises (rat [2]): 2,5
- inhibition in vivo at 100 mg/kg (rat [3]; [5]): 38%
- inhibition in vivo at 100 mg/kg (rat [3]; [6]): 45%
- inhibition in vivo at 100 mg/kg (rat [3]; [7]): 49%
- inhibition in vivo at 100 mg/kg (rat [3]; [8]): 53%
- inhibition in vivo at 100 mg/kg (rat [4]; [9]): 48%
- inhibition in vivo at 100 mg/kg (rat [4]; [10]): 56%

SMILES: O=C(NCCc1ccccc1)c1cc2sccc2cn1 [Dérivé 15, Phénéthylaminocarbonyl-6 thiéno[3,2-c] pyridine]
- Pourcentage d'animaux endormis (souris): 90%
- inhibition in vivo at 100 mg/kg (rat [3]; [5]): 38%
- inhibition in vivo at 100 mg/kg (rat [3]; [6]): 45%
- inhibition in vivo at 100 mg/kg (rat [3]; [7]): 49%
- inhibition in vivo at 100 mg/kg (rat [3]; [8]): 53%
- inhibition in vivo at 100 mg/kg (rat [4]; [9]): 53%
- inhibition in vivo at 100 mg/kg (rat [4]; [10]): 60%

SMILES: O=C(c1cc2sccc2cn1)N1CCN(c2cccc(Cl)c2)CC1 [Dérivé 28, (m-chlorophényl-4 pipérazinyl-1)carbonyl-6 thiéno[3,2-c] pyridine]
- Pourcentage d'animaux endormis (souris): 80%

SMILES: CCC1(c2ccccc2)C(=O)NC(=O)NC1=O [phénobarbital, reference compound]
- valeurs moyennes de l'intensité des crises (rat [2]): 2

SMILES: CN(C)CCNC(=O)c1cc2sccc2cn1 [Dérivé 2, β -diméthylaminoéthylaminocarbonyl-6 thiéno [3,2-c] pyridine]
- LD50 at 24 h [1]: 89 mg/kg

SMILES: Cc1ccc(N2CCN(C(=O)c3cc4sccc4cn3)CC2)cc1 [Dérivé 26, (p-tolyl-4 pipérazinyl-1)carbonyl-6 thiéno[3,2-c]bvridine]
- Pourcentage d'animaux endormis (souris): 90%

SMILES: O=C(c1cc2sccc2cn1)N1CCN(c2ccccc2Cl)CC1 [Dérivé 27, (o-chlorophényl-4 pipérazinyl-1) carbonyl-6 thiéno[3,2-c] pyridine]
- inhibition in vivo at 100 mg/kg (rat [3]; [5]): 41%
- inhibition in vivo at 100 mg/kg (rat [3]; [6]): 49%
- inhibition in vivo at 100 mg/kg (rat [3]; [7]): 52%
- inhibition in vivo at 100 mg/kg (rat [3]; [8]): 54%
- inhibition in vivo at 100 mg/kg (rat [4]; [9]): 47%
- inhibition in vivo at 100 mg/kg (rat [4]; [10]): 56%

SMILES: COc1ccc(N2CCN(C(=O)c3cc4sccc4cn3)CC2)cc1 [Dérivé 29, (p-méthoxyphényl-4 pipérazinyl-1) carbonyl-6 tniéno[3,2-c] pyridine]
- Pourcentage d'animaux endormis (souris): 90%

SMILES: NC(=O)c1cc2ccsc2cn1 [Dérivé 32, Carbamoyl-5 thiéno [2,3-c] pyridine]
- inhibition in vivo at 100 mg/kg (rat [3]; [5]): 34%
- inhibition in vivo at 100 mg/kg (rat [3]; [6]): 41%
- inhibition in vivo at 100 mg/kg (rat [3]; [7]): 45%
- inhibition in vivo at 100 mg/kg (rat [3]; [8]): 47%
- inhibition in vivo at 100 mg/kg (rat [4]; [9]): 52%
- inhibition in vivo at 100 mg/kg (rat [4]; [10]): 60%

SMILES: O=C(NCc1cccnc1)c1cc2sccc2cn1 [Dérivé 24, (pyridyl-3 méthyl)aminocarbonyl-6 thiéno[3,2-c] pyridine]
- LD50 at 24 h [1]: 96 mg/kg

SMILES: O=C(NCc1ccccc1)c1cc2ccsc2cn1 [Dérivé 13, Benzylaminocarbonyl-5 thiéno [2,3-c] pyridine]
- valeurs moyennes de l'intensité des crises (rat [2]): 3
- inhibition in vivo at 100 mg/kg (rat [3]; [5]): 34%
- inhibition in vivo at 100 mg/kg (rat [3]; [6]): 40%
- inhibition in vivo at 100 mg/kg (rat [3]; [7]): 45%
- inhibition in vivo at 100 mg/kg (rat [3]; [8]): 51%
- inhibition in vivo at 100 mg/kg (rat [4]; [9]): 50%
- inhibition in vivo at 100 mg/kg (rat [4]; [10]): 56%

SMILES: O=C(NCCN1CCOCC1)c1cc2sccc2cn1 [Dérivé 19, β -morpholinoéthylaminocarbonyl-6 thiéno[3,2-c] pyridine]
- valeurs moyennes de l'intensité des crises (rat [2]): 2,5

SMILES: O=C(NCc1ccncc1)c1cc2ccsc2cn1 [Dérivé 21, (pyridyl-4-méthyl)aminocarbonyl-5-thiéno[2,3-c] pyridine]
- inhibition in vivo at 100 mg/kg (rat [3]; [5]): 40%
- inhibition in vivo at 100 mg/kg (rat [3]; [6]): 48%
- inhibition in vivo at 100 mg/kg (rat [3]; [7]): 51%
- inhibition in vivo at 100 mg/kg (rat [3]; [8]): 54%
- inhibition in vivo at 100 mg/kg (rat [4]; [9]): 45%
- inhibition in vivo at 100 mg/kg (rat [4]; [10]): 52%

SMILES: CC(C)NC(=O)c1cc2ccsc2cn1 [Dérivé 5, Isopropylaminocarbonyl-5 thiéno [2,3-c] pyridine]
- Pourcentage d'animaux endormis (souris): 80%
- valeurs moyennes de l'intensité des crises (rat [2]): 2,5
- inhibition in vivo at 100 mg/kg (rat [3]; [5]): 43%
- inhibition in vivo at 100 mg/kg (rat [3]; [6]): 49%
- inhibition in vivo at 100 mg/kg (rat [3]; [7]): 54%
- inhibition in vivo at 100 mg/kg (rat [3]; [8]): 56%
- inhibition in vivo at 100 mg/kg (rat [4]; [9]): 52%
- inhibition in vivo at 100 mg/kg (rat [4]; [10]): 60%

SMILES: O=C(Nc1cccc(C(F)(F)F)c1)c1cc2sccc2cn1 [Dérivé 25, (trifluorométhyl-3 phényl)aminocarbonyl-6 thiéno[3,2-c] pyridine]
- Pourcentage d'animaux endormis (souris): 90%
- valeurs moyennes de l'intensité des crises (rat [2]): 2,5
- inhibition in vivo at 100 mg/kg (rat [3]; [5]): 39%
- inhibition in vivo at 100 mg/kg (rat [3]; [6]): 46%
- inhibition in vivo at 100 mg/kg (rat [3]; [7]): 49%
- inhibition in vivo at 100 mg/kg (rat [3]; [8]): 52%
- inhibition in vivo at 100 mg/kg (rat [4]; [9]): 51%
- inhibition in vivo at 100 mg/kg (rat [4]; [10]): 59%
